The target of series [1] is rabbit anti-G17 (C-terminal) antiserum. As to the kind of experiment: Displacement of radiolabelled G17 from C-terminal specific antiserum. Format: binding. The conditions noted are these: antiserum 100 μg/ml on solid phase, radiolabelled G17 100 pg/ml; FIG. 12. The protocol: (§1) Antisera were absorbed onto a solid phase at a concentration of 100 μg/ml and displacement was determined in a competitive assay with a fixed concentration of radiolabelled G17 (100 pg/ml) and increasing concentrations of unlabelled ligands (1-25,000 pg/ml).

Series [2] deals with rabbit anti-human G17(1-9):DT (N-terminal) antiserum. As to the kind of experiment: Displacement of radiolabelled G17 from N-terminal specific antiserum. The series is classed as binding. The conditions noted are these: antiserum 100 μg/ml on solid phase, radiolabelled G17 100 pg/ml; FIG. 11. The procedure: as §1
The subject of series [3] is polypoid carcinomas from the large and small intestine of Min mice. The experiment in a line: In vitro proliferation of Min mouse polypoid carcinomas, tetrazolium-based colorimetric assay. Format: cell-based. The procedure:
Polypoid carcinomas have been established in vitro from the large and small intestine of Min mice. Proliferation was assessed by a tetrazolium-based colorimetric ELISA assay.

The subject of series [4] is plasma gastrin. To be noted: cited from earlier work.
Series [5] deals with plasma gastrin. To be noted: 400 μmol/kg, 14 mg/kg, 10 weeks; cited from earlier work.
The test system of series [6] is Min mouse model of familial adenomatous polyposis.
Description: Accordingly, the effect of gastrin neutralization on Min mouse survival was determined.
The Min mice used in the study were bred within the Academic Unit of Cancer Studies at Nottingham University (U.K.) on a C57/BL background. […] The Min positive mice were then placed into each arm of the therapy on an ongoing basis.
Gastrin neutralization was achieved by using an immunogen, i.e. the gastrin immunogen preparation, which is composed of the amino terminal domain of gastrin-17 linked, via an amino acid spacer, to diphtheria toxoid which acts as the immunogenic carrier. The antibodies raised by virtue of the design of the immunogen, cross-react with both amidated and glycine-extended gastrin-17, known proliferative forms of gastrin. Min mice were immunized s.c. with the hG17-DT immunogen (100 mg/mouse) at week 4, with subsequent injections at 3 weekly intervals. […] The hG17-DT immunogen was administered to mice at 4 weeks of age to examine its effect on mice with an established tumor burden.
• Group 1. OME 75 mg/kg daily oral treatment • Group 2. OME+GSI 100 mg oral dose/mouse day 0 and every 3 weeks • Group 3. Oral vehicle+control immunogen • Group 4. Oral vehicle−control immunogen
The subject of series [7] is plasma gastrin. To be noted: cited from earlier work. This is another data set of the same source.
Series [8] deals with crypts and tumors of the small and large intestine. As to the kind of experiment: Bromodeoxyuridine in situ proliferation index in Min mice. The series is classed as in vivo, mouse. To be noted: hypergastrinemic mice. The protocol:
One hour prior to termination, mice were injected with DNA analogue bromodeoxyuridine in order to determine the comparative in situ proliferation activity. The samples were formalin fixed, paraffin embedded, sections were cut and stained with an anti-bromodeoxyuridine antibody.
Serum gastrin level was measured by RIA. Prior to end of treatment, proliferative index was determined by the bromodeoxyuridine method. • Group 1.

[9] abbreviates: patients receiving 40 mg daily for eight years.
[10] abbreviates: same dose (400 μmol/kg, 14 mg/kg).

Where no end group is shown, it is not given here.

Consider four molecules from US20050187152A1, “Prevention and treatment of hypergastrinemia” (Aphton Corporation, priority 1998, published 2005).

For the molecule “G17: gastrin-17, unlabelled ligand in the displacement assay [Peptide G17]”, the “50% inhibitory concentration (IC50), displacement of radiolabelled G17” value was determined as 0.8 ng/mL in series [1] and 3.5 ng/mL in series [2].

Take “amidated gastrin: amidated gastrin added to Min mouse tumor cultures (QGPWLEEEEEAYGWMDF-NH2; ends and bridges not checked; UniProt P01350 76-92, looked up)”: in series [3], the “proliferation of large intestinal tumor in vitro” value is “not increased” and the “proliferation of small intestinal tumor in vitro” value was “not increased”.

For the molecule “G34: gastrin-34, unlabelled ligand in the displacement assay (QLGPQGPPHLVADPSKKQGPWLEEEEEAYGWMDF; ends and bridges not checked; UniProt P01350 59-92, looked up) [Peptide G34]”, the “IC25, displacement of radiolabelled G17” value in series [1] was found to be 0.5 ng/mL.

For `COc1ccc2[nH]c([S+]([O-])Cc3ncc(C)c(OC)c3C)nc2c1` (centres unmarked) [omeprazole], the “markedly elevated gastrin levels” value in series [4] (occasionally, long term treatment, 20-60 mg/day) is listed as 10 fold. Moreover, in series [4] (setting [9]), the “prevalence of micronodular hyperplasia in atrophic gastritis” value is 48%, the “prevalence of micronodular hyperplasia in interstitial gastritis” value was 19.6% and the “prevalence of micronodular hyperplasia in superficial corpus gastritis” value was 3.6%. Besides, in series [5], the “ECL density increase at the end of treatment” value is recorded as 37%, the “increase in plasma gastrin during treatment” value is “threefold” and the “stomach weight increase at the end of treatment” value is 34%. In series [6] (Example 2, OME 75 mg/kg daily oral, control group 16 weeks, p=0.0001 log rank), the 50% survival turned out to be 8 weeks. The “effect of omeprazole-induced hypergastrinemia on survival of Min mice” value in series [6] (high daily doses of omeprazole) is on record as “decreases the survival”. For the same molecule, in series [6] (omeprazole-induced hypergastrinemia, reduced from approximately 10 weeks), the median survival was approximately 6 weeks. Moreover, the “increase in gastrin compared to controls” value in series [7] (female rats, long-term (1-year) daily 400 μmol/kg, 14 mg/kg) was 15 fold. Moreover, in series [7] (setting [10]), the “ECL cell density increase” value is listed as “about 300%” and the “increase of gastrin levels” value is on record as 10 fold. The “proliferating cells, normal colonic mucosa” value in series [8] (increased from 9.46%, p<0.05 Mann-Whitney) turned out to be 20.1%. Besides, the “proliferating cells, colonic neoplasia” value in series [8] (increased from 22.3%, p<0.01) came out at 35.0%.
